Each structure is given as a SMILES string.

The species entered for this data set is Homo sapiens. The data set can be described thus: Hepatic clearance in human. The following applies: in vivo.
For `N[C@@H]1CN(c2c(F)cc3c(=O)c(C(=O)O)cn([C@@H]4C[C@@H]4F)c3c2Cl)CC12CC2` [SITAFLOXACIN ANHYDROUS], the CL worked out at 0.9 mL/min/kg.

`CC(C)[C@H]1CC[C@H](C(=O)N[C@H](Cc2ccccc2)C(=O)O)CC1` [NATEGLINIDE] yielded a CL of 1.7 mL/min/kg.

The compound `Nc1ncnc2c1ncn2CCOCP(=O)(O)O` [ADEFOVIR] gave a CL of 0.4 mL/min/kg.

Compound `Nc1nc2c(c(=O)[nH]1)N(C=O)C(CNc1ccc(C(=O)N[C@@H](CCC(=O)O)C(=O)O)cc1)CN2` (stereo partly drawn) [LEUCOVORIN] gave a CL of 4.5 mL/min/kg.

`CC(=O)Nc1ccc(OCC(O)CNC(C)C)cc1` (stereo not drawn) [PRACTOLOL] registered a CL of 0.3 mL/min/kg.

Turning to `CC1COc2c(N3CCN(C)CC3)c(F)cc3c(=O)c(C(=O)O)cn1c23` (stereo not drawn) [OFLOXACIN], the CL came to 0.8 mL/min/kg.

The compound `C[C@H](/C=C/[C@H](C)C(C)(C)O)[C@H]1CC[C@H]2/C(=C/C=C3C[C@@H](O)C[C@H](O)C3)CCC[C@]12C` [PARICALCITOL] returned a CL of 0.9 mL/min/kg.

Consider `Cc1ccc(O)c([C@H](CCN(C(C)C)C(C)C)c2ccccc2)c1` [TOLTERODINE], for which the CL is 8.4 mL/min/kg.

`N=C(N)NC(=O)Cc1c(Cl)cccc1Cl` [GUANFACINE]: the CL amounted to 2.9 mL/min/kg.

As for `CCC(C)n1ncn(-c2ccc(N3CCN(c4ccc(OCC5COC(Cn6cncn6)(c6ccc(Cl)cc6Cl)O5)cc4)CC3)cc2)c1=O` (stereo not drawn) [ITRACONAZOLE], the CL amounted to 5.1 mL/min/kg.

As to `CCN(CC)CCNC(=O)c1ccc(NS(C)(=O)=O)cc1` [SEMATILIDE], the CL turned out to be 0.2 mL/min/kg.

As for `CN1C(=O)C(O)N=C(c2ccccc2Cl)c2cc(Cl)ccc21` (stereo not drawn) [LORMETAZEPAM], the CL came out at 4 mL/min/kg.

In turn, `N=C(N)c1ccc(CNC(=O)[C@@H]2CCN2C(=O)[C@H](NCC(=O)O)C2CCCCC2)cc1` returned a CL of 0.3 mL/min/kg.

The compound `CN1CCN(C(=O)OC2c3nccnc3C(=O)N2c2ccc(Cl)cn2)CC1` (stereo not drawn) [ZOPICLONE] showed a CL of 3.2 mL/min/kg.

Compound `CCN(CC)CCCC(C)Nc1ccnc2cc(Cl)ccc12` (stereo not drawn) [CHLOROQUINE] displayed a CL of 1.8 mL/min/kg.

The compound `CN[C@@H]1CCc2[nH]c3ccc(C(N)=O)cc3c2C1` [FROVATRIPTAN] came in with a CL of 1.5 mL/min/kg.

Consider `CCNCC(O)c1cccc(O)c1` (stereo not drawn) [ETILEFRINE], for which the CL amounted to 10 mL/min/kg.

The compound `CCN(CC)CCNC(=O)c1cc(Cl)c(N)cc1OC` [METOCLOPRAMIDE] displayed a CL of 4.6 mL/min/kg.

Take `c1ccc(C2(c3ccccc3)CC2C2=NCCN2)cc1` (stereo not drawn) [CIFENLINE]: the CL came to 4.4 mL/min/kg.

In turn, `CN1C2CCCC1CC(NC(=O)c1nn(C)c3ccccc13)C2` (stereo not drawn) [GRANISETRON] had a CL of 8.1 mL/min/kg.

As to `NC1CCN(c2c(F)cc3c(=O)c(C(=O)O)cn(C4CC4)c3c2Cl)C1` (stereo not drawn) [CLINAFLOXACIN], the CL amounted to 1.5 mL/min/kg.

Take `COc1ccccc1OCCNCC(O)COc1cccc2[nH]c3ccccc3c12` (stereo not drawn) [CARVEDILOL]: the CL worked out at 7.7 mL/min/kg.

`CC(C)(C)NCC(O)COc1ccc(NC(=O)NC2CCCCC2)cc1` (stereo not drawn) [TALINOLOL] gave a CL of 2.3 mL/min/kg.

Consider `C#CCN(C)[C@H](C)Cc1ccccc1` [SELEGILINE], for which the CL is 19.8 mL/min/kg.

With `CC(=O)NC[C@H]1CN(c2ccc(N3CCOCC3)c(F)c2)C(=O)O1` [LINEZOLID], the CL was 1.2 mL/min/kg.

`Nc1ccn(C[C@@H](CO)OCP(=O)(O)O)c(=O)n1.O.O` [CIDOFOVIR]: the CL came to 0.3 mL/min/kg.

Compound `Cc1onc(-c2c(Cl)cccc2Cl)c1C(=O)N[C@@H]1C(=O)N2[C@@H]1SC(C)(C)[C@@H]2C(=O)O` [DICLOXACILLIN] had a CL of 0.8 mL/min/kg.

The compound `Cc1ccccc1N1C(=O)c2cc(S(N)(=O)=O)c(Cl)cc2NC1C` (stereo not drawn) [METOLAZONE] returned a CL of 0.3 mL/min/kg.

Turning to `CC[C@]1(O)C[C@@H]2CN(CCc3c([nH]c4ccccc34)[C@@](C(=O)OC)(c3cc4c(cc3OC)N(C)[C@H]3[C@@](O)(C(=O)OC)[C@H](OC(C)=O)[C@]5(CC)C=CCN6CC[C@]43[C@@H]65)C2)C1` [VINBLASTINE], the CL amounted to 0.5 mL/min/kg.

As for `O=C1Nc2ccc(Cl)cc2C(c2ccccc2Cl)=NC1O` (stereo not drawn) [LORAZEPAM], the CL is 1 mL/min/kg.

`COc1ccc([C@@H]2Sc3ccccc3N(CCN(C)C)C(=O)[C@@H]2OC(C)=O)cc1` [DILTIAZEM] had a CL of 3.8 mL/min/kg.

In turn, `C[C@@H]1O[C@@H]1P(=O)(O)O` [FOSFOMYCIN] returned a CL of 0.02 mL/min/kg.

In turn, `CO[C@H]1/C=C/O[C@@]2(C)Oc3c(C)c(O)c4c(O)c(c(/C=N/N5CCN(C)CC5)c(O)c4c3C2=O)NC(=O)/C(C)=C\C=C\[C@H](C)[C@H](O)[C@@H](C)[C@@H](O)[C@@H](C)[C@H](OC(C)=O)[C@@H]1C` [RIFAMPIN] yielded a CL of 1.3 mL/min/kg.

As to `O=C(O)[C@H]1/C(=C/CO)O[C@@H]2CC(=O)N21` [CLAVULANIC ACID], the CL was 1.8 mL/min/kg.

`COc1cc(OC)c(C(=O)CCCN2CCCC2)c(OC)c1` [BUFLOMEDIL]: the CL came to 4.3 mL/min/kg.

Regarding `C=CC[C@@H]1/C=C(\C)C[C@H](C)C[C@H](OC)[C@H]2O[C@@](O)(C(=O)C(=O)N3CCCC[C@H]3C(=O)O[C@H](/C(C)=C/[C@@H]3CC[C@@H](O)[C@H](OC)C3)[C@H](C)[C@@H](O)CC1=O)[C@H](C)C[C@@H]2OC` [TACROLIMUS ANHYDROUS], the CL is 0.7 mL/min/kg.

`CC1(C)S[C@@H]2[C@H](NC(=O)[C@H](N)c3ccc(O)cc3)C(=O)N2[C@H]1C(=O)O` [AMOXICILLIN] had a CL of 1.4 mL/min/kg.

As to `COCCCOc1ccnc(C[S+]([O-])c2nc3ccccc3[nH]2)c1C` (stereo not drawn) [RABEPRAZOLE], the CL was found to be 4 mL/min/kg.

The compound `COc1c(N2CCNC(C)C2)c(F)cc2c(=O)c(C(=O)O)cn(C3CC3)c12` (stereo not drawn) [GATIFLOXACIN] displayed a CL of 0.5 mL/min/kg.

In turn, `COc1ccc(Cc2nccc3cc(OC)c(OC)cc23)cc1OC` [PAPAVERINE] registered a CL of 11 mL/min/kg.

Turning to `CC(C)(C)NC[C@H](O)COc1nsnc1N1CCOCC1` [TIMOLOL], the CL turned out to be 7.1 mL/min/kg.

With `CC1=C(C(=O)O)N2C(=O)[C@@H](NC(=O)[C@H](N)c3ccc(O)cc3)[C@H]2SC1` [CEFADROXIL], the CL was 0.2 mL/min/kg.

In turn, `CNS(=O)(=O)CCc1ccc2[nH]cc(C3CCN(C)CC3)c2c1` returned a CL of 3.5 mL/min/kg.

In turn, `CC1(C)S[C@@H]2[C@H](NC(=O)COc3ccccc3)C(=O)N2[C@H]1C(=O)O` [PENICILLIN V] yielded a CL of 5.1 mL/min/kg.

Consider `CCOc1ccc(/C=C2\NCCc3cc(OCC)c(OCC)cc32)cc1OCC` [DROTAVERINE], for which the CL turned out to be 3.5 mL/min/kg.

In the case of `CN(C)CCc1c[nH]c2ccc(C[C@H]3COC(=O)N3)cc12` [ZOLMITRIPTAN], the CL was determined as 4.5 mL/min/kg.

Take `CCCCc1ncc(/C=C(\Cc2cccs2)C(=O)O)n1Cc1ccc(C(=O)O)cc1` [EPROSARTAN]: the CL stood at 1.2 mL/min/kg.

Compound `C[C@]12CC[C@@H]3c4ccc(OC(=O)N(CCCl)CCCl)cc4CC[C@H]3[C@@H]1CC[C@@H]2OP(=O)(O)O` [ESTRAMUSTINE PHOSPHATE] displayed a CL of 0.9 mL/min/kg.

On to `C=CCc1ccccc1OCC(O)CNC(C)C` (stereo not drawn) [ALPRENOLOL], for which the CL is 14.4 mL/min/kg.

In turn, `O=P(O)(O)C(O)(Cc1cccnc1)P(=O)(O)O` [RISEDRONIC ACID] displayed a CL of 0.2 mL/min/kg.

In turn, `COC(=O)C1=C(C)NC(C)=C(C(=O)OCC(C)C)C1c1ccccc1[N+](=O)[O-]` (stereo not drawn) [NISOLDIPINE] gave a CL of 15 mL/min/kg.

Take `CC1=C(C(=O)O)N2C(=O)[C@@H](NC(=O)[C@H](N)C3=CCC=CC3)[C@H]2SC1` [CEPHRADINE]: the CL was 0.2 mL/min/kg.

`C[C@](N)(Cc1ccc(O)c(O)c1)C(=O)O` [METHYLDOPA] had a CL of 1.4 mL/min/kg.

The compound `CCCC1O[C@@H]2C[C@H]3[C@@H]4CCC5=CC(=O)C=C[C@]5(C)[C@H]4[C@@H](O)C[C@]3(C)[C@]2(C(=O)CO)O1` (stereo partly drawn) [BUDESONIDE] came in with a CL of 19 mL/min/kg.

Take `CN[C@H](CC(C)C)C(=O)N[C@H]1C(=O)N[C@@H](CC(N)=O)C(=O)N[C@H]2C(=O)N[C@H]3C(=O)N[C@H](C(=O)N[C@H](C(=O)O)c4cc(O)cc(O)c4-c4cc3ccc4O)[C@H](O)c3ccc(c(Cl)c3)Oc3cc2cc(c3O[C@@H]2O[C@H](CO)[C@@H](O)[C@H](O)[C@H]2O[C@H]2C[C@](C)(N)[C@H](O)[C@H](C)O2)Oc2ccc(cc2Cl)[C@H]1O` [VANCOMYCIN]: the CL is 0.3 mL/min/kg.

`CN(C)C(=O)Oc1ccc[n+](C)c1` [PYRIDOSTIGMINE] had a CL of 2.4 mL/min/kg.

Regarding `C[C@H]1O[C@@H](n2cc(F)c(=O)[nH]c2=O)[C@H](O)[C@@H]1O` [DOXIFLURIDINE], the CL is 6.7 mL/min/kg.

Compound `CC[C@H](C)C(=O)O[C@H]1C[C@H](O)C=C2C=C[C@H](C)[C@H](CC[C@@H](O)C[C@@H](O)CC(=O)O)[C@H]21` [PRAVASTATIN] had a CL of 7.7 mL/min/kg.

The compound `CC(C)NCC(O)COc1cccc2ccccc12` (stereo not drawn) [PROPRANOLOL] returned a CL of 10.8 mL/min/kg.

In the case of `CC1(C)S[C@@H]2[C@H](NC(=O)[C@H](N)c3ccccc3)C(=O)N2[C@H]1C(=O)O` [AMPICILLIN], the CL worked out at 1.6 mL/min/kg.

For the compound `Cc1[nH]c(=O)c(C#N)cc1-c1ccncc1` [MILRINONE], the CL turned out to be 1.2 mL/min/kg.

`CC(C)(C)NC(=O)[C@H]1CC[C@H]2[C@@H]3CC=C4C=C(C(=O)O)CC[C@]4(C)[C@H]3CC[C@]12C` [EPRISTERIDE]: the CL is 0.3 mL/min/kg.

Compound `CCN(CC)C(=O)/C(C#N)=C/c1cc(O)c(O)c([N+](=O)[O-])c1` [ENTACAPONE] had a CL of 5.3 mL/min/kg.

`CN(Cc1cnc2nc(N)nc(N)c2n1)c1ccc(C(=O)N[C@@H](CCC(=O)O)C(=O)O)cc1` [METHOTREXATE] yielded a CL of 0.4 mL/min/kg.

Consider `COCCOC(=O)C1=C(C)NC(C)=C(C(=O)OC(C)C)C1c1cccc([N+](=O)[O-])c1` (stereo not drawn) [NIMODIPINE], for which the CL is 15 mL/min/kg.

On to `N[C@@H](CC(=O)N1CCn2c(nnc2C(F)(F)F)C1)Cc1cc(F)c(F)cc1F` [SITAGLIPTIN], for which the CL was determined as 1.3 mL/min/kg.

`CC(C)(C)NCC(O)c1cc(O)cc(O)c1` (stereo not drawn) [TERBUTALINE] had a CL of 1.2 mL/min/kg.

Turning to `CC(C)NCC(O)COc1ccc(COCCOC(C)C)cc1` (stereo not drawn) [BISOPROLOL], the CL came out at 1.4 mL/min/kg.

These data come from ChEMBL document CHEMBL1156824, “Physicochemical space for optimum oral bioavailability: contribution of human intestinal absorption and first-pass elimination” (J Med Chem, 2010).
